Usually viability stands for a read-out of living cells in per cent, often relative to untreated cells.

Read-outs that look alike come from different tables or passages of the source.

Assay [1] deals with S. mansoni schistosomulae. The experiment in a line: Phenotypic primary screen assay on schistosomulae (phenotype; viability by methylene blue dye exclusion). Type of assay: cell-based, Schistosoma mansoni. The following applies: three-day-old schistosomulae, 10 μM, 24 h; estimated 5 days post compound exposure. The method in brief: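 Parasites lacking contraction/relaxation cycles and showing dark internal granulations counted as dead. Movement and body shape were compared with DMSO-treated controls under a stereo microscope at 24 h and at five days of exposure. Larvae came from infected snails shed under light for 2 h at 32 °C.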

The test system of assay [2] is S. mansoni schistosomulae. In words: Motility assay on schistosomulae (pixel displacement, relative to DMSO control). Type of assay: cell-based, Schistosoma mansoni. As to conditions: for activity at 1 µM: Schistosoma mansoni, read-out: Fractional motility. In a few lines: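 Motility was scored by pixel displacement from 1-min videos (10 frames/s) and compared with DMSO controls. Schistosomulae (200/well, Opti-MEM, 5% dialyzed FBS, no antibiotics) received compound at 1 or 10 μM for 24 h; selected hits were also followed at 1, 3, 6 and 12 h.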

In assay [3] the test system is S. mansoni adult worms. The experiment in a line: Motility assay on adult parasites (pixel displacement, relative to DMSO control). Type of assay: cell-based, Schistosoma mansoni. As to conditions: 10 μM; for Fractional motility: secondary screen; for motility phenotype in words: adults, long-term after washout. The method in brief:
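Unpaired adult worms from mice 6 weeks post-infection kept in OPTI-MEM with 5% dialyzed FBS and exposed to compounds at 1 and 10 μM for 24 h. Motility filmed 1 min at 10 frames/s, quantified by pixel displacement versus DMSO-treated worms; recovery followed up to five days after washout.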

For assay [4], the system named is S. mansoni schistosomulae. The experiment in a line: Phenotypic primary screen assay on schistosomulae (phenotype; viability by methylene blue dye exclusion). Type of assay: cell-based. The following applies: Schistosoma mansoni; three-day-old schistosomulae, 10 μM, 24 h; calculated 5 days post compound exposure; read-out: Viability (%).
[5] abbreviates: 120 h, schistosomulae, secondary screen, 24h exposure, read at D5, 1 µM.
Setting [6] is: schistosomulae, secondary screen, 24h exposure, read at D1, 1 µM.
Setting [7] is: schistosomulae, secondary screen, 24h exposure, read at D1, 10 µM.
The mark [8] stands for this setting: schistosomulae, secondary screen, 24h exposure, read at D5, 10 µM.

As to `CCOC(=O)C1=C(C)NC(C)=C(C(=O)OCC)C1c1ccccc1/C=C/C(=O)OC(C)(C)C` [Lacidipine], the Phenotype entry in assay [1] is recorded as “granulated”. In addition, the activity at 1 µM in assay [2] (setting [5]) was -11%; in assay [2] (setting [6]) it was 99%. The Fractional motility is on record as 3.79 in assay [2] (setting [7]); 0.28 in assay [2] (setting [8]); -0.73 in assay [3] (D1, Female adult worms); -0.50 in assay [3] (D1, Male adult worms); -0.82 in assay [3] (D5, Female adult worms); -0.53 in assay [3] (D5, Male adult worms). In addition, in assay [4], the viability at 10 µM was 99%.

In the case of `Cc1cccc(C(C)c2cnc[nH]2)c1C` (stereo not drawn) [Medetomidine], in assay [1], the Phenotype entry was “elongated”. Besides, the activity at 1 µM is 10% in assay [2] (setting [5]) and -39% in assay [2] (setting [6]). Also, the Fractional motility in assay [2] (setting [7]) is listed as -0.24; in assay [2] (setting [8]), 0.20; in assay [3] (D1, Female adult worms), 1.05; in assay [3] (D1, Male adult worms) it was 2.75; in assay [3] (D5, Female adult worms), -0.85; in assay [3] (D5, Male adult worms), 0.31. Besides, the viability at 10 µM in assay [4] is 100%.

For `NCC(=O)Nc1ccc(-n2nc(C(F)(F)F)cc2-c2ccc3c(ccc4ccccc43)c2)cc1` [OSU-03012], in assay [1], the Phenotype result was “big, granulated”. Also, the activity at 1 µM in assay [2] (setting [5]) and in assay [2] (setting [6]) was 26% in each case. For the same compound, the Fractional motility is on record as -1.00 in assay [2] (setting [7]); -0.72 in assay [2] (setting [8]); 0.79 in assay [3] (D1, Female adult worms); 1.37 in assay [3] (D1, Male adult worms); -0.15 in assay [3] (D5, Female adult worms); 0.62 in assay [3] (D5, Male adult worms). Also, in assay [4], the viability at 10 µM was 1%.

Turning to `CCCCCCCCOc1ccccc1C(=O)Nc1ccc(C(=O)OCC[N+](C)(CC)CC)cc1` [Otilonium], in assay [1], the Phenotype entry was “blebbing”. Further, the values for the activity at 1 µM in assay [2] (setting [5]) and in assay [2] (setting [6]) were 31% and -72%, respectively. The Fractional motility in assay [2] (setting [7]) is given as 0.56; in assay [2] (setting [8]), -0.13; in assay [3] (D1, Female adult worms), 0.10; in assay [3] (D1, Male adult worms), 0.16; in assay [3] (D5, Female adult worms), -0.67; in assay [3] (D5, Male adult worms), -0.65. The viability at 10 µM in assay [4] is 98.5%.

Take `CCCN1C[C@H](CSC)C[C@@H]2c3cccc4[nH]cc(c34)C[C@H]21` [Pergolide]: the Phenotype result in assay [1] is “big, round”. In addition, the activity at 1 µM in assay [2] (setting [5]) was -25%; in assay [2] (setting [6]), 139%. Moreover, the Fractional motility is reported as 18.64 in assay [2] (setting [7]); -0.34 in assay [2] (setting [8]); 0.25 in assay [3] (D1, Female adult worms); 2.14 in assay [3] (D1, Male adult worms); -0.82 in assay [3] (D5, Female adult worms); -0.30 in assay [3] (D5, Male adult worms). In addition, in assay [4], the viability at 10 µM was 99%.

`COCCCN1CCC(NC(=O)c2cc(Cl)c(N)c3c2OCC3)CC1` [Prucalopride]: the Phenotype result in assay [1] is given as “elongated”. The values for the activity at 1 µM in assay [2] (setting [5]) and in assay [2] (setting [6]) were -11% and 121%, respectively. Further, the Fractional motility in assay [2] (setting [7]) is listed as 6.36; in assay [2] (setting [8]), -0.28; in assay [3] (D1, Female adult worms) it was -0.26; in assay [3] (D1, Male adult worms) it was 0.72; in assay [3] (D5, Female adult worms) it was -0.27; in assay [3] (D5, Male adult worms), 0.34. Moreover, the viability at 10 µM in assay [4] is 96%.

As to `CC(C)(C)c1cc(NC(=O)Nc2ccc(-c3cn4c(n3)sc3cc(OCCN5CCOCC5)ccc34)cc2)no1` [Quizartinib], the Phenotype entry in assay [1] was “granulated”. The activity at 1 µM in assay [2] (setting [5]) was -2.37%. Further, the Fractional motility is reported as -0.36 in assay [2] (setting [8]); 0.64 in assay [3] (D1, Female adult worms); 4.64 in assay [3] (D1, Male adult worms); -0.59 in assay [3] (D5, Female adult worms); -0.09 in assay [3] (D5, Male adult worms). The viability at 10 µM in assay [4] is 54%.

With `Cc1c(C(=O)NN2CCCCC2)nn(-c2ccc(Cl)cc2Cl)c1-c1ccc(Cl)cc1` [Rimonabant], the Phenotype entry in assay [1] is “abnormal morphology, granulated”. The values for the activity at 1 µM in assay [2] (setting [5]) and in assay [2] (setting [6]) were -21% and 433%, respectively. For the same compound, the Fractional motility in assay [2] (setting [7]) is 12.27; in assay [2] (setting [8]), 4.07; in assay [3] (D1, Female adult worms), -0.30; in assay [3] (D1, Male adult worms), 0.0659; in assay [3] (D5, Female adult worms) it was -0.41; in assay [3] (D5, Male adult worms), -0.55. In assay [4], the viability at 10 µM was 98.5%.

For the compound `Cc1ccc(C(=O)N(CCCN)[C@@H](c2oc3cc(Cl)ccc3c(=O)c2Cc2ccccc2)C(C)C)cc1` [SB743921], in assay [1], the Phenotype entry is listed as “big, dark”. Besides, the activity at 1 µM in assay [2] (setting [5]) worked out at 17%; in assay [2] (setting [6]), 74%. Further, the Fractional motility in assay [2] (setting [7]) was 1.32; in assay [2] (setting [8]), -0.89; in assay [3] (D1, Female adult worms) it was 1.14; in assay [3] (D1, Male adult worms) it was 1.48; in assay [3] (D5, Female adult worms) it was -0.87; in assay [3] (D5, Male adult worms), 0.0641. In addition, in assay [4], the viability at 10 µM is 70%.

For `CN1CCC(CNc2ccc3ncc(-c4cccc(OC(F)(F)F)c4)n3n2)CC1` [SGI-1776], the Phenotype result in assay [1] is “dark”. For the same compound, the activity at 1 µM in assay [2] (120 h, Selleckchem customized library secondary screen, 24h, D5, 1 µM) was 35%. The Fractional motility is on record as 121.95 in assay [2] (Selleckchem customized library secondary screen, 24h, D1, 10 µM); 114.81 in assay [2] (Selleckchem customized library secondary screen, 24h, D5, 10 µM); 3.98 in assay [3] (D1, Female adult worms); 9.87 in assay [3] (D1, Male adult worms); 0.50 in assay [3] (D5, Female adult worms); 0.36 in assay [3] (D5, Male adult worms). The “stimulated motility relative to control” value in assay [2] (schistosomulae, throughout the course of the experiment) is listed as above 100 fold. Also, the viability at 10 µM in assay [4] is 92.5%.

Turning to `O=C(O[C@H]1CN2CCC1CC2)N1CCc2ccccc2[C@@H]1c1ccccc1` [Solifenacin], the Phenotype result in assay [1] is listed as “elongated, granulated, blebbing”. The activity at 1 µM in assay [2] (24 h) is -30%; in assay [2] (120 h) it was -59%. Besides, the Fractional motility in assay [2] (setting [7]) is on record as 1.46; in assay [2] (setting [8]) it was 0.44; in assay [3] (D1, Female adult worms), 1.59; in assay [3] (D1, Male adult worms), 2.65; in assay [3] (D5, Female adult worms) it was -0.55; in assay [3] (D5, Male adult worms), 0.28. Further, the viability at 10 µM in assay [4] was 96.5%.

As for `COc1ccc2cc1Oc1ccc(cc1)C[C@H]1c3cc(c(OC)cc3CCN1C)Oc1c(OC)c(OC)cc3c1[C@H](C2)N(C)CC3` [Tetrandrine], the Phenotype result in assay [1] is “big, granulated”. Further, the values for the activity at 1 µM in assay [2] (setting [5]) and in assay [2] (setting [6]) were -31% and -9%, respectively. Also, the Fractional motility in assay [2] (setting [7]) was -0.39; in assay [2] (setting [8]) it was -0.87; in assay [3] (D1, Female adult worms), -0.51; in assay [3] (D1, Male adult worms), -0.37; in assay [3] (D5, Female adult worms), -0.97; in assay [3] (D5, Male adult worms) it was -0.61. Besides, in assay [3], the “motility phenotype in words” value is reported as “strongly impaired movement”. The viability at 10 µM in assay [4] was 89%.

Regarding `CNCc1ccc(-c2cc(-c3nc(-c4ccc(S(=O)(=O)C(C)C)cc4)cnc3N)on2)cc1` [VE-822], the Phenotype entry in assay [1] is “dark, granulated”. Besides, the results for the activity at 1 µM in assay [2] (setting [5]) and in assay [2] (setting [6]) were -14% and -37%, respectively. The Fractional motility in assay [2] (schistosomulae, 1h exposure, read at D1, 10 µM) is -0.26; in assay [2] (schistosomulae, 1h exposure, read at D5, 10 µM) it was -0.63; in assay [2] (schistosomulae, 3h exposure, read at D1, 10 µM) it was -0.72; in assay [2] (schistosomulae, 3h exposure, read at D5, 10 µM), -0.69; in assay [2] (schistosomulae, 6h exposure, read at D1, 10 µM) it was 3.57; in assay [2] (schistosomulae, 6h exposure, read at D5, 10 µM), 0.02. Also, the Fractional motility is -0.68 in assay [2] (setting [7]); -0.83 in assay [2] (setting [8]); -0.46 in assay [3] (D1, Female adult worms); -0.30 in assay [3] (D1, Male adult worms); -0.67 in assay [3] (D5, Female adult worms); -0.66 in assay [3] (D5, Male adult worms). Also, the “motility in extended assay with reduced incubation times, in words” value in assay [2] (three-day old schistosomulae, incubation 1 h, 3 h, 6 h) is reported as “did not exhibit a significant change before the 24 hr incubation cut-off”. Moreover, the “motility phenotype in words” value in assay [3] is on record as “Significant hypomotility”. For the same compound, the viability at 10 µM in assay [4] is 11.5%.

`C=CC(=O)Nc1cccc(Oc2nc(Nc3ccc(N4CCN(C)CC4)cc3OC)ncc2Cl)c1` [WZ4002]: the Phenotype result in assay [1] was “dark, granulated”. Besides, the activity at 1 µM in assay [2] (setting [5]) was 51%; in assay [2] (setting [6]) it was -58%. Moreover, the Fractional motility in assay [2] (setting [8]) is listed as -0.62; in assay [3] (D1, Female adult worms), 0.66; in assay [3] (D1, Male adult worms), 0.64; in assay [3] (D5, Female adult worms) it was -0.61; in assay [3] (D5, Male adult worms), 1.33. In addition, the “motility phenotype in words” value in assay [3] is “hypermotility in male worms and hypomotility in females”. The viability at 10 µM in assay [4] was 7%.

The record behind these values is publication PMC7284125, “Identification of annotated bioactive molecules that impair motility of the blood fluke Schistosoma mansoni” (International Journal for Parasitology: Drugs and Drug …, 2020).
